Laboratory results published in patent US20080039438A1, “1B-Methylcarbapenem Derivative and Process for the Preparation Thereof” (Korea Institute of Science and Technology, priority 2004, published 2008).
Converted amounts (≈) assume the structure as drawn.

Key:
Format in all cases: cell-based
[1] = tested on: Methicillin-sensitive Staphylococcus aureus; test: MIC against clinically isolated aerobic Gram-positive strains; conditions: 33 strains
Staphylococcus coagulase = test: as above; conditions: Staphylococcus
Streptococcus pyogenes = test: as above; conditions: 15 strains
Streptococcus agalactiae = test: as above; conditions: 15 strains
Streptococcus pneumoniae = test: as above; conditions: 22 strains
Enterococcus faecalis = test: as above; conditions: 30 strains
Enterococcus faecium = test: as above; conditions: clinically isolated Enterococcus faecium, 29 strains
Moraxella catarrhalis = test: MIC against clinically isolated aerobic Gram-negative strains; conditions: 24 strains
Haemophilus influenzae = test: as above; conditions: 24 strains
Escherichia coli = test: as above; conditions: 30 strains
Citrobacter freundii = test: as above; conditions: 14 strains
Klebsiella pneumoniae = test: as above; conditions: 30 strains
Klebsiella oxytoca = test: as above; conditions: 15 strains
Enterobacter cloacae = test: as above; conditions: 29 strains
Enterobacter aerogenes = test: as above; conditions: 14 strains
Serratia marcescens = test: as above; conditions: 14 strains
Proteus mirabilis = test: as above; conditions: 15 strains
Proteus vulgaris = test: as above; conditions: 15 strains
Morganella morganii = test: as above; conditions: 15 strains
Providentia sp. = test: as above; conditions: 13 strains
Acinetobacter baumannii = test: as above; conditions: 30 strains
Pseudomonas aeruginosa = test: as above; conditions: 60 strains
Peptostreptococcus spp. = test: MIC against clinically isolated anaerobic Gram-positive strains; conditions: 27 strains
Clostridium perfringens = test: microbe, parasite or virus in culture
Clostridium difficile = test: MIC against clinically isolated anaerobic Gram-positive strains; conditions: 15 strains
Experimental: The in vitro antibacterial activities of the sodium 3-carboxylate compound of the present invention prepared in the above Example were measured against standard strains (Table 1), clinically isolated aerobic Gram-positive strains (Table 2), clinically isolated aerobic Gram-negative strains (Table 3), clinically isolated anaerobic Gram-positive strains (Table 4) and clinically isolated anaerobic Gram-negative strains (Table 5) using Gram-positive bacteria such as Streptococcus and Staphylococcus, Gram-negative bacteria such as Escherichia, Salmonella, Krebsiella and Enterobacter. Imipenem (IPM), meropenem (MPM) and ertapenem (EPM) were used as control groups.
The results are shown in Tables 1 to 5, and MIC50 and MIC90 represent the concentrations at which the test strain's growth was inhibited to the extents of 50% and 90%, respectively.

Bacteroides fragilis = test: MIC against clinically isolated anaerobic Gram-negative strains; conditions: 34 strains
[2] = tested on: Bacteroides thetaiotaomicron; test: as above
Bacteroides spp. = test: as above; conditions: 11 strains

C[C@@H](O)[C@H]1C(=O)N2C(C(=O)O)=C(S[C@@H]3CN[C@H](C(=O)Nc4cccc(C(=O)O)c4)C3)[C@H](C)[C@H]12 [EPM, ertapenem]
MIC50 [1]: 0.25 µg/mL (≈ 0.526 µM)
MIC90 [1]: 0.25 µg/mL (≈ 0.526 µM)
MIC Range [1]: 0.25 to 0.5 µg/mL
MIC50 (Staphylococcus coagulase): 0.25 µg/mL (≈ 0.526 µM)
MIC90 (Staphylococcus coagulase): 0.5 µg/mL (≈ 1.05 µM)
MIC50 (Streptococcus pyogenes): 0.15 µg/mL (≈ 0.315 µM)
MIC90 (Streptococcus pyogenes): 0.15 µg/mL (≈ 0.315 µM)
MIC Range (Streptococcus pyogenes): 8 to 15 ng/mL
MIC50 (Streptococcus agalactiae): 0.06 µg/mL (≈ 0.126 µM)
MIC90 (Streptococcus agalactiae): 0.06 µg/mL (≈ 0.126 µM)
MIC Range (Streptococcus agalactiae): 0.03 to 0.06 µg/mL
MIC50 (Streptococcus pneumoniae): 0.5 µg/mL (≈ 1.05 µM)
MIC90 (Streptococcus pneumoniae): 1 µg/mL (≈ 2.1 µM)
MIC Range (Streptococcus pneumoniae): 8 to 1000 ng/mL
MIC50 (Enterococcus faecalis): 16 µg/mL (≈ 33.6 µM)
MIC90 (Enterococcus faecalis): 32 µg/mL (≈ 67.3 µM)
MIC Range (Enterococcus faecalis): 4 to 64 µg/mL
MIC Range (Enterococcus faecium): 32 to 128 µg/mL
MIC50 (Enterococcus faecium; read-out: MIC50): 128 µg/mL (≈ 269 µM)
MIC90 (Enterococcus faecium; read-out: MIC90): 128 µg/mL (≈ 269 µM)
MIC50 (Moraxella catarrhalis): 0.015 µg/mL (≈ 0.0315 µM)
MIC90 (Moraxella catarrhalis): 0.03 µg/mL (≈ 0.0631 µM)
MIC Range (Moraxella catarrhalis): 8 to 120 ng/mL
MIC50 (Haemophilus influenzae): 0.12 µg/mL (≈ 0.252 µM)
MIC90 (Haemophilus influenzae): 0.5 µg/mL (≈ 1.05 µM)
MIC Range (Haemophilus influenzae): 0.12 to 1 µg/mL
MIC50 (Escherichia coli): 8 ng/mL (≈ 0.0168 µM)
MIC90 (Escherichia coli): 0.12 µg/mL (≈ 0.252 µM)
MIC Range (Escherichia coli): 8 to 4000 ng/mL
MIC50 (Citrobacter freundii): 8 ng/mL (≈ 0.0168 µM)
MIC90 (Citrobacter freundii): 0.25 µg/mL (≈ 0.526 µM)
MIC Range (Citrobacter freundii): 8 to 500 ng/mL
MIC50 (Klebsiella pneumoniae): 0.03 µg/mL (≈ 0.0631 µM)
MIC90 (Klebsiella pneumoniae): 0.5 µg/mL (≈ 1.05 µM)
MIC Range (Klebsiella pneumoniae): 8 to 1000 ng/mL
MIC50 (Klebsiella oxytoca): 8 ng/mL (≈ 0.0168 µM)
MIC90 (Klebsiella oxytoca): 8 ng/mL (≈ 0.0168 µM)
MIC Range (Klebsiella oxytoca): 8 to 250 ng/mL
MIC50 (Enterobacter cloacae): 0.12 µg/mL (≈ 0.252 µM)
MIC90 (Enterobacter cloacae): 2 µg/mL (≈ 4.21 µM)
MIC Range (Enterobacter cloacae): 0.015 to 2 µg/mL
MIC Range (Enterobacter aerogenes): 8 to 500 ng/mL
MIC50 (Enterobacter aerogenes; Klebsiella aerogenes): 0.06 µg/mL (≈ 0.126 µM)
MIC90 (Enterobacter aerogenes; Klebsiella aerogenes): 0.5 µg/mL (≈ 1.05 µM)
MIC50 (Serratia marcescens): 0.06 µg/mL (≈ 0.126 µM)
MIC90 (Serratia marcescens): 16 µg/mL (≈ 33.6 µM)
MIC Range (Serratia marcescens): 0.015 to 16 µg/mL
MIC50 (Proteus mirabilis): 8 ng/mL (≈ 0.0168 µM)
MIC90 (Proteus mirabilis): 0.015 µg/mL (≈ 0.0315 µM)
MIC Range (Proteus mirabilis): 8 to 15 ng/mL
MIC50 (Proteus vulgaris): 0.015 µg/mL (≈ 0.0315 µM)
MIC90 (Proteus vulgaris): 0.015 µg/mL (≈ 0.0315 µM)
MIC Range (Proteus vulgaris): 8 to 30 ng/mL
MIC50 (Morganella morganii): 8 ng/mL (≈ 0.0168 µM)
MIC90 (Morganella morganii): 0.03 µg/mL (≈ 0.0631 µM)
MIC Range (Morganella morganii): 8 to 30 ng/mL
MIC50 (Providentia sp.): 0.03 µg/mL (≈ 0.0631 µM)
MIC90 (Providentia sp.): 16 µg/mL (≈ 33.6 µM)
MIC Range (Providentia sp.): 8 to 16000 ng/mL
MIC50 (Acinetobacter baumannii): 8 µg/mL (≈ 16.8 µM)
MIC90 (Acinetobacter baumannii): 64 µg/mL (≈ 135 µM)
MIC Range (Acinetobacter baumannii): 4 to 128 µg/mL
MIC50 (Pseudomonas aeruginosa): 32 µg/mL (≈ 67.3 µM)
MIC90 (Pseudomonas aeruginosa): 128 µg/mL (≈ 269 µM)
MIC Range (Pseudomonas aeruginosa): 1 to 128 µg/mL
MIC50 (Peptostreptococcus spp.): 0.12 µg/mL (≈ 0.252 µM)
MIC90 (Peptostreptococcus spp.): 4 µg/mL (≈ 8.41 µM)
MIC Range (Peptostreptococcus spp.): 0.06 to 4 µg/mL
MIC50 (Clostridium perfringens; Clostridium perfringens): 0.06 µg/mL (≈ 0.126 µM)
MIC90 (Clostridium perfringens; Clostridium perfringens): 0.12 µg/mL (≈ 0.252 µM)
MIC Range (Clostridium perfringens; clinically isolated anaerobic Clostridium perfringens, 13 strains): 0.06 to 0.12 µg/mL
MIC Range (Clostridium difficile): 4 to 8 µg/mL
MIC50 (Clostridium difficile; Clostridioides difficile): 4 µg/mL (≈ 8.41 µM)
MIC90 (Clostridium difficile; Clostridioides difficile): 8 µg/mL (≈ 16.8 µM)
MIC50 (Bacteroides fragilis): 0.25 µg/mL (≈ 0.526 µM)
MIC90 (Bacteroides fragilis): 1 µg/mL (≈ 2.1 µM)
MIC Range (Bacteroides fragilis): 0.12 to 4 µg/mL
MIC50 ([2]; Bacteroides thetaiotaomicron): 2 µg/mL (≈ 4.21 µM)
MIC90 ([2]; Bacteroides thetaiotaomicron): 2 µg/mL (≈ 4.21 µM)
MIC Range ([2]; clinically isolated anaerobic Bacteroides thetaiotaomicron, 15 strains): 0.25 to 8 µg/mL
MIC50 (Bacteroides spp.): 1 µg/mL (≈ 2.1 µM)
MIC90 (Bacteroides spp.): 2 µg/mL (≈ 4.21 µM)
MIC Range (Bacteroides spp.): 0.5 to 2 µg/mL
